Broadly, the inhibition is the change of the read-out against control, counted positive when it falls.

Six compounds from patent US11661400B2, “NADPH oxidase inhibitors, pharmaceutical composition comprising the same, and application thereof” (TAIWANJ PHARMACEUTICALS CO., LTD., priority 2018, dated 2023) can be followed below.

The target in assay [1] is T1, NOX1 (Homo sapiens, UniProt Q9Y5S8).
T1 construct: endogenous in cells; host or cells: HT29
T1 sequence (Q9Y5S8 1-564): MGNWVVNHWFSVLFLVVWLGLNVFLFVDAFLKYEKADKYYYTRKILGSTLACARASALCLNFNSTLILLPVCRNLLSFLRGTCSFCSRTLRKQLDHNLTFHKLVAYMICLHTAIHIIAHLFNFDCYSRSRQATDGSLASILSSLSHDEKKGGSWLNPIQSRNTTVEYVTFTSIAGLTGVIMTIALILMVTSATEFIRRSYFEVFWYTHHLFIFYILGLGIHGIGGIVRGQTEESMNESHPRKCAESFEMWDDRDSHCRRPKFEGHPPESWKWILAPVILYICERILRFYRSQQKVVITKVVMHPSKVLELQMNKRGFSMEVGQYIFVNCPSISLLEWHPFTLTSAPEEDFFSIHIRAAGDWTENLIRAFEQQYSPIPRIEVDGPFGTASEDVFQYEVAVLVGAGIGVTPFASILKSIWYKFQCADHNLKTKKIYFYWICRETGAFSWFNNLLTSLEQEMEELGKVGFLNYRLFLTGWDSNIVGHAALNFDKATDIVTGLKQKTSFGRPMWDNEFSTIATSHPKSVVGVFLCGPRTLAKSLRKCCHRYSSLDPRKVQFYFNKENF
T1 sequence (P13498 2-195 partner limits assumed): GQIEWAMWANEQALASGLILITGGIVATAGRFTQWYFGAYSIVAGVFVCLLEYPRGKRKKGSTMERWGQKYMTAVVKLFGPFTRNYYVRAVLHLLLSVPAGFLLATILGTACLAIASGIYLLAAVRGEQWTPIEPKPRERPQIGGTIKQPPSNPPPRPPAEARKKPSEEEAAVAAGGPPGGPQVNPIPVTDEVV
Briefly: NOX1 HT29 cell-based assay (luminol/HRP luminescence). The settings on record: HT29 cells, DMSO = 0%, GKT137831 = 100%; for inhibition at 0.1 µM / inhibition at 1 µM: HT-29. How it is done: NOX1 HT29 Cell-Based Assay:
HT29 cells were cultured in T75 flask (Corning) and when 70-80% confluence was reached, cells were trypsinized, harvested in HBSS and counted. 1-2×10^5 cells were dispensed into individual wells in 70 μl final volume (96-well plates, white Corning). Cells were treated for 30-60 mins at 37° C. with 10 μl of GKT137831, DMSO and test compounds from their respective assay plates. This will correspond to a final concentration of 100 nM, 1000 nM GKT137831 or test compounds, and 0.1% DMSO. 20 μL of a mixture containing 100 μM luminol plus 0.4 units of HRP (final concentration) was added. Luminescence was quantified using a SpectraMax i3 Multiplate reader (Molecular Devices, Sunnyvale, Calif., USA). As designed, compounds that inhibit NOX1 activity will reduce cellular ROS production, leading to reduced probe-ROS interactions and reduced well luminescence. Compounds were tested in duplicate at a concentration of 100 nM and 1000 nM. DMSO and GKT137831 wells were applied as negative and positive controls, and the activities measured were set to 0% and 100%, respectively.

The target in assay [2] is T2, NOX2 (Homo sapiens, UniProt P04839).
T2 construct: HL-60 cells, rich in NOX2 expression; endogenous in cells; host or cells: DMSO-differentiated HL-60
T2 sequence (P04839 2-570 limits assumed): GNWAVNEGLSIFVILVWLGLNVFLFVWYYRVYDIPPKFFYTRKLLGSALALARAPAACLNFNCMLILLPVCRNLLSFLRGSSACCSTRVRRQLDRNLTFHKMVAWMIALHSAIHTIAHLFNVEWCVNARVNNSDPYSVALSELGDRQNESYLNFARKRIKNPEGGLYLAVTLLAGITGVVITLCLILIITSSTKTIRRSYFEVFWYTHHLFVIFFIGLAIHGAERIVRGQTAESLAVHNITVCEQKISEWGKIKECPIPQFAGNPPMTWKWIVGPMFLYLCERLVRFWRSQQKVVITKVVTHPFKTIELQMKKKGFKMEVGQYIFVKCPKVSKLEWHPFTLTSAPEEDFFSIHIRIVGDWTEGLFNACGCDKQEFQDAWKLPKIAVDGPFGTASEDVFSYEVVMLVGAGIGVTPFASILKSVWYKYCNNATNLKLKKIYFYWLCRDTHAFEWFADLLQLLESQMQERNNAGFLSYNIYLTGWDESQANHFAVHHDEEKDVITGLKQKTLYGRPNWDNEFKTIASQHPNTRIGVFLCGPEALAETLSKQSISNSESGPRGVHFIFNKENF
T2 sequence (P13498 2-195 partner limits assumed): T1 sequence (P13498 2-195 partner limits assumed)
Briefly: NOX2 HL60 cell-based assay (PMA oxidative burst, L012 chemiluminescence). Particulars: DMSO-differentiated HL-60 cells, PMA-stimulated; for inhibition at 0.1 µM: HL-60, 100 nM; for inhibition at 1 µM: HL-60, 1000 nM. Here is the method: NOX2 HL60 Cell-Based Assay:
HL-60 cells, rich in NOX2 expression, was stimulated to undergo oxidative burst by phorbol myristate acetate (PMA). The ROS produced during this process was measured using the O2^−-specific chemiluminescent probe L012. L012 was added to DMSO-differentiated HL-60 cell suspensions to a final concentration of 100 μM. Then, 80 μL aliquots of cell suspension (2.5×10^5 cells) were transferred to individual wells of a 96-well plate. Test compounds were directly added to the wells at the specified concentrations. Following a 30-60 mins incubation at 37° C. in the dark, the oxidative burst was initiated by the addition of 10 ng/mL PMA, and the chemiluminescence signal was recorded every 5 min over a period of 60 mins in a SpectraMax i3 Multiplate reader (Molecular Devices, Sunnyvale, Calif., USA). • NOX4 HEK293 Overexpression Cell-Based Assay: […]

Assay [3] deals with T3, NOX4 (Homo sapiens, UniProt Q9NPH5).
T3 construct: expressed in transfected cells
T3 sequence (Q9NPH5 1-578): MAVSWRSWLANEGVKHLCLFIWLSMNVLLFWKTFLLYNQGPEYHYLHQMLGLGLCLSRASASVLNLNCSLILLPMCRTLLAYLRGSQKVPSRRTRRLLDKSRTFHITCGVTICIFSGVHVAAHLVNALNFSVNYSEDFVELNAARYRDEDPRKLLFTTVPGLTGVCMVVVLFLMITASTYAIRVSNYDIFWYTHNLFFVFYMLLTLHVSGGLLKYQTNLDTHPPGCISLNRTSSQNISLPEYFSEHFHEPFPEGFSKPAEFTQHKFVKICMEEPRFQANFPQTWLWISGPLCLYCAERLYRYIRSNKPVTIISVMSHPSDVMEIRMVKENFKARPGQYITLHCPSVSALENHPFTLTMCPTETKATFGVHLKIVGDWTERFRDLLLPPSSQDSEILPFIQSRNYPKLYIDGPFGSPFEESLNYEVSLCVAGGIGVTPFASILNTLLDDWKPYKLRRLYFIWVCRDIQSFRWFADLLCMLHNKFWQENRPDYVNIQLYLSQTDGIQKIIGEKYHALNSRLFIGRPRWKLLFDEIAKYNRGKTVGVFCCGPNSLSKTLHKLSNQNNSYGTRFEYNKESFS
T3 sequence (P13498 2-195 partner limits assumed): T1 sequence (P13498 2-195 partner limits assumed)
In words: NOX4 HEK293 overexpression cell-based assay (Amplex Red H2O2). The settings on record: HEK293 cells stably overexpressing NOX4, DMSO = 0, GKT137831 = 100; for inhibition at 0.1 µM: HEK293, 100 nM; for inhibition at 1 µM: HEK293, 1000 nM. How it is done: Extracellular H2O2 measurement using Amplex™ Red Hydrogen Peroxide/Peroxidase Assay Kit (Catalog number: A22188; Invitrogen, Carlsbad, Calif., USA) was used to detect extracellular H2O2 release by HEK293 cells stably overexpressing NOX4. NOX4 clonal cells in log-phase growth were trypsinized, washed, and dispersed thoroughly. Following trypsinization, the cells (3×10^4) were resuspended in 100 μL of 1× Krebs-Ringer phosphate glucose (KRPG) buffer containing various concentrations of GKT137831 or test compounds and incubated at 37° C. for 30 min. Cells were mixed with 100 μL of Amplex Red reagent solution containing 50 μM Amplex Red and 0.1 units/mL of HRP in KRPG buffer; each assay condition was evaluated induplicate. The samples were incubated at 37° C. for 90 mins in the dark, and then centrifuged at 2,500 g for 5 mins. The supernatants were loaded to a 96 well plate, and then measured using a SpectraMax i3 Multiplate reader (Molecular Devices, Sunnyvale, Calif., USA) at 530 nm excitation and 590 nm emission respectively. DMSO and GKT137831 wells were applied as negative and positive controls, and the activities measured were set to 0 and 100, respectively.

As for `COc1cc2[nH]c(-c3ccccc3Cl)c(O)c(=O)c2cc1OC` [Compound 9], the results for the inhibition at 0.1 µM in assay [1] (100 nM), in assay [2] and in assay [3] were no less than 80%, no more than 19% and 50 to 79%, respectively. Moreover, the inhibition at 1 µM in assay [1] (1000 nM) and in assay [2] was no less than 80% throughout. The “% Inhibition NOX4” value in assay [3] (1000 nM, 1 µM) was “A (the percent of inhibition of NOX by the compounds is larger than or equals to 80%)”.

As to `COc1cc2[nH]c(-c3ccccc3C(F)(F)F)c(O)c(=O)c2cc1OC` [Compound 43, 3-hydroxy-6,7-dimethoxy-2-(2-(trifluoromethyl)phenyl)quinolin-4(1H)-one acetate], the “% Inhibition NOX1” value in assay [1] (100 nM) and in assay [1] (1000 nM) was “A (the percent of inhibition of NOX by the compounds is larger than or equals to 80%)” each time. For the same compound, the “% Inhibition NOX2” value in assay [2] (100 nM, acetate, 0.1 µM) is reported as “B (the percent of inhibition of NOX by the compounds ranges from 50% o to 79% o)”; in assay [2] (1000 nM, acetate, 1 µM), “A (the percent of inhibition of NOX by the compounds is larger than or equals to 80%)”. Also, the “% Inhibition NOX4” value in assay [3] (100 nM) and in assay [3] (1000 nM) was “B (the percent of inhibition of NOX by the compounds ranges from 50% o to 79% o)” in each case.

Consider `COc1cc2[nH]c(-c3ccccc3OC(F)(F)F)c(O)c(=O)c2cc1OC` [Compound 48], for which the “% Inhibition NOX1” value in assay [1] (100 nM) and in assay [1] (1000 nM) was “A (the percent of inhibition of NOX by the compounds is larger than or equals to 80%)” throughout. For the same compound, the “% Inhibition NOX2” value in assay [2] (100 nM, 0.1 µM) is recorded as “C (the percent of inhibition of NOX by the compounds ranges from 2000 to 49%)”; in assay [2] (1000 nM, 1 µM), “B (the percent of inhibition of NOX by the compounds ranges from 50% o to 79% o)”. The “% Inhibition NOX4” value in assay [3] (100 nM) is on record as “C (the percent of inhibition of NOX by the compounds ranges from 2000 to 49%)”; in assay [3] (1000 nM, 1 µM) it was “A (the percent of inhibition of NOX by the compounds is larger than or equals to 80%)”.

Take `COc1cc2[nH]c(-c3ccccc3Cl)c(N)c(=O)c2cc1OC` [Compound 36, 3-amino-2-(2-chlorophenyl)-6,7-dimethoxyquinolin-4(1H)-one]: the “% Inhibition NOX1” value in assay [1] (100 nM) is recorded as “C (the percent of inhibition of NOX by the compounds ranges from 2000 to 49%)”. The inhibition at 1 µM in assay [1] (1000 nM) was no less than 80%; in assay [2], no less than 80%; in assay [3], 50 to 79%. In addition, the “% Inhibition NOX2” value in assay [2] (100 nM) is listed as “C (the percent of inhibition of NOX by the compounds ranges from 2000 to 49%)”. The inhibition at 0.1 µM in assay [3] is no more than 19%.

Turning to `COc1ccccc1-c1[nH]c2cc3c(cc2c(=O)c1O)OCO3` [Compound 26], the inhibition at 0.1 µM in assay [1] (100 nM) is no less than 80%; in assay [2] it was 50 to 79%. Also, the inhibition at 1 µM in assay [1] (1000 nM), in assay [2] and in assay [3] was no less than 80% each time. The “% Inhibition NOX4” value in assay [3] (100 nM) is recorded as “C (the percent of inhibition of NOX by the compounds ranges from 2000 to 49%)”.

For `COc1ccc2[nH]c(C(=O)c3ccccc3OC)c(O)c(=O)c2c1` [Compound 34, 3-hydroxy-6-methoxy-2-(2-methoxybenzoyl) quinolin-4(1H)-one], the inhibition at 0.1 µM in assay [1] (100 nM), in assay [2] and in assay [3] was no more than 19% each time. Further, the inhibition at 1 µM in assay [1] (1000 nM), in assay [2] and in assay [3] was no more than 19% in each case.
